Data taken from patent US20250270191A1, “QUINOLONE BCL6 BIFUNCTIONAL DEGRADERS” (Treeline Biosciences, Inc., priority 2022, published 2025).

Biological target: T1, Human BCL6 protein (N-terminal HiBiT tagged BCL6 in HT1080 cells) (Homo sapiens, UniProt P41182+Q96SW2)
T1 construct: Human BCL6 protein coding open reading frame; expressed in transfected cells; host or cells: HT1080 (ATCC CCL-121), stably transduced with lentivirus pLV-UBC-N-HiBiT-BCL6-PGK-puro
Assay: HiBiT based BCL6 degradation assay
Assay type: cell-based
Conditions: HT1080 cells expressing N-terminal HiBiT tagged BCL6; 5 hours incubation; BCL6 degradation normalized with DMSO control
How it was run: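 HT1080 cells stably expressing N-terminal HiBiT-BCL6 were treated with compound dilution series for 5 h at 37° C. in RPMI 1640 with 10% FBS. HiBiT lytic luminescence read after 15 min; degradation normalized to DMSO, with curves fitted by four-parameter logistic model.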

Structure (SMILES) | Ymin (5 hr)
CNC(=O)COc1cc2cc(Nc3nc(N4CCC(CN5CCN(c6cccc7c(C8CCC(=O)NC8=O)nn(C)c67)CC5)CC4)ncc3Cl)ccc2n(C)c1=O (stereo not shown) [Compound 333, 2-((6-((5-chloro-2-(4-((4-(3-(2,6-dioxopiperidin-3-yl)-1-methyl-1H-indazol-7-yl)piperazin-1-yl)methyl)piperidin-1-yl)pyrimidin-4-yl)amino)-1-methyl-2-oxo-1,2-dihydroquinolin-3-yl)oxy)-N-methylacetamide] | ++++ (Ymin ≤ 25%)
CNC(=O)COc1cc2cc(Nc3nc(N4CCC(CN5CCN(c6ccc7c(C8CCC(=O)NC8=O)nn(C)c7c6)CC5)CC4)ncc3Cl)ccc2n(C)c1=O (stereo not shown) [Compound 334, 2-((6-((5-chloro-2-(4-((4-(3-(2,6-dioxopiperidin-3-yl)-1-methyl-1H-indazol-6-yl)piperazin-1-yl)methyl)piperidin-1-yl)pyrimidin-4-yl)amino)-1-methyl-2-oxo-1,2-dihydroquinolin-3-yl)oxy)-N-methylacetamide] | ++++ (Ymin ≤ 25%)
CNC(=O)COc1cc2cc(Nc3nc(N4CCCC5(CCCN(c6ccc7c(C8CCC(=O)NC8=O)nn(C)c7c6)C5)C4)ncc3Cl)ccc2n(C)c1=O (stereo not shown) [Compound 335, 2-((6-((5-chloro-2-(8-(3-(2,6-dioxopiperidin-3-yl)-1-methyl-1H-indazol-6-yl)-2,8-diazaspiro[5.5]undecan-2-yl)pyrimidin-4-yl)amino)-1-methyl-2-oxo-1,2-dihydroquinolin-3-yl)oxy)-N-methylacetamide] | ++ (50% < Ymin ≤ 70%)
CNC(=O)COc1cc2cc(Nc3nc(N4C[C@@H](C)N(CC5CCN(c6cccc7c(C8CCC(=O)NC8=O)nn(C)c67)CC5)[C@@H](C)C4)ncc3Cl)ccc2n(C)c1=O (stereo partly drawn) [Compound 336a, 2-((6-((5-chloro-2-((3S,5R)-4-((1-(3-(2,6-dioxopiperidin-3-yl)-1-methyl-1H-indazol-7-yl)piperidin-4-yl)methyl)-3,5-dimethylpiperazin-1-yl)pyrimidin-4-yl)amino)-1-methyl-2-oxo-1,2-dihydroquinolin-3-yl)oxy)-N-methylacetamide] | ++++ (Ymin ≤ 25%)
CNC(=O)COc1cc2cc(Nc3nc(N4CCN(C(C)(C)C5CCN(c6cccc7c(C8CCC(=O)NC8=O)nn(C)c67)CC5)CC4)ncc3Cl)ccc2n(C)c1=O (stereo not shown) [Compound 337, 2-((6-((5-chloro-2-(4-(2-(1-(3-(2,6-dioxopiperidin-3-yl)-1-methyl-1H-indazol-7-yl)piperidin-4-yl)propan-2-yl)piperazin-1-yl)pyrimidin-4-yl)amino)-1-methyl-2-oxo-1,2-dihydroquinolin-3-yl)oxy)-N-methylacetamide] | ++++ (Ymin ≤ 25%)
CNC(=O)COc1cc2cc(Nc3nc(N4CC5CCC(Nc6ccc7c(C8CCC(=O)NC8=O)nn(C)c7c6)CC5C4)ncc3Cl)ccc2n(C)c1=O (stereo not shown) [Compound 338, 2-((6-((5-chloro-2-(5-((3-(2,6-dioxopiperidin-3-yl)-1-methyl-1H-indazol-6-yl)amino)octahydro-2H-isoindol-2-yl)pyrimidin-4-yl)amino)-1-methyl-2-oxo-1,2-dihydroquinolin-3-yl)oxy)-N-methylacetamide] | ++ (50% < Ymin ≤ 70%)
CNC(=O)COc1cc2cc(Nc3nc(N4CC5CCC(Nc6cccc7c(C8CCC(=O)NC8=O)nn(C)c67)CC5C4)ncc3Cl)ccc2n(C)c1=O (stereo not shown) [Compound 339, 2-((6-((5-chloro-2-(5-((3-(2,6-dioxopiperidin-3-yl)-1-methyl-1H-indazol-7-yl)amino)octahydro-2H-isoindol-2-yl)pyrimidin-4-yl)amino)-1-methyl-2-oxo-1,2-dihydroquinolin-3-yl)oxy)-N-methylacetamide] | ++ (50% < Ymin ≤ 70%)
